Values quoted from earlier work as cited in US20240377378A1, “TRACER METHODS FOR THE DETERMINATION OF SORBENT CONTENT IN SOILS” (Regenesis Bioremediation Products, priority 2023, published 2024).

Legend:
[1] = 2012 OSHA Hazard Communication Standard
[2] = under normal conditions (Congo Red: normal or ambient conditions)
[3] = water

Structure (SMILES) | Serious eye damage/eye irritation hazard category [1] | acute oral toxicity hazard category [1] | pKa | Chemical Stability [2] | Solubility [3] | Solubility (in words) [3] | Hazard Identification: criteria for hazardous classification [1] | carcinogenicity hazard category [1] | reproductive toxicity hazard category [1]
CCN(CC)c1ccc2c(-c3ccccc3C(=O)O)c3ccc(=[N+](CC)CC)cc-3oc2c1.[Cl-] [Rhodamine B] | (Category 1) | (Category 4), | 3.1-3.22 | Stable under | – | – | – | – | –
O=S(=O)(O)c1cc(S(=O)(=O)O)c2c(/N=N/c3ccccc3)c(O)ccc2c1 [Orange G] | – | – | 11.5 | Stable under | 50 to 100 mg/mL | soluble in water | Does not meet | – | –
Nc1c(/N=N/c2ccc(-c3ccc(/N=N/c4cc(S(=O)(=O)O)c5ccccc5c4N)cc3)cc2)cc(S(=O)(=O)O)c2ccccc12 [Congo Red] | – | – | – | Stable under | 25 to 116 mg/mL | – | – | (Category 1B), | (Category 2)
